Data taken from ChEMBL document CHEMBL4138093, “Discovery and characterization of selective human sphingomyelin synthase 2 inhibitors” (Eur J Med Chem, 2017).

What was measured:
[1] = biological target: T1, Phosphatidylcholine:ceramide cholinephosphotransferase 1 (Homo sapiens, UniProt Q86VZ5); assay: Inhibition of human SMS1
T1 sequence (Q86VZ5 whole entry): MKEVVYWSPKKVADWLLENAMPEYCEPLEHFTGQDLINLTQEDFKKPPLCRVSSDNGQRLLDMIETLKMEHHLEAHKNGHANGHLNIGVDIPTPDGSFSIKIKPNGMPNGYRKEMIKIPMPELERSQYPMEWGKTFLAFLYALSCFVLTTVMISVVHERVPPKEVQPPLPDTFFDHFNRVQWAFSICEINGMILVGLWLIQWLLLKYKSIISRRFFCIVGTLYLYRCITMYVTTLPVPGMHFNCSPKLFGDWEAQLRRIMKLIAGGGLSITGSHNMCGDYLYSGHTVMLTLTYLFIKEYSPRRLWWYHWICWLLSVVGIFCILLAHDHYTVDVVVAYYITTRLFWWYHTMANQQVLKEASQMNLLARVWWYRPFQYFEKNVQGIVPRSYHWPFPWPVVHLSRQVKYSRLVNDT

HEK-293T = assay: Cytotoxicity against HEK293T cells by CellTiter-Glo luminescent cell viability assay relative to control; type: cell-based; conditions: human
[2] = biological target: T1, Phosphatidylcholine:ceramide cholinephosphotransferase 1; assay: Inhibition of full length C-terminal FLAG tagged human SMS1 expressed in HEK293 cell membranes using DMPC-d72 and C17-ceramide as substrate preincubated for 60 mins followed by substrate addition measured after 30 mins by RapidFire/mass spectrometry assay
[3] = biological target: T2, Phosphatidylcholine:ceramide cholinephosphotransferase 2 (Homo sapiens, UniProt Q8NHU3); assay: Inhibition of full length C-terminal FLAG tagged human SMS2 expressed in HEK293 cell membranes using DMPC-d72 and C17-ceramide as substrate preincubated for 60 mins followed by substrate addition measured after 30 mins by RapidFire/mass spectrometry assay
T2 sequence (Q8NHU3 whole entry): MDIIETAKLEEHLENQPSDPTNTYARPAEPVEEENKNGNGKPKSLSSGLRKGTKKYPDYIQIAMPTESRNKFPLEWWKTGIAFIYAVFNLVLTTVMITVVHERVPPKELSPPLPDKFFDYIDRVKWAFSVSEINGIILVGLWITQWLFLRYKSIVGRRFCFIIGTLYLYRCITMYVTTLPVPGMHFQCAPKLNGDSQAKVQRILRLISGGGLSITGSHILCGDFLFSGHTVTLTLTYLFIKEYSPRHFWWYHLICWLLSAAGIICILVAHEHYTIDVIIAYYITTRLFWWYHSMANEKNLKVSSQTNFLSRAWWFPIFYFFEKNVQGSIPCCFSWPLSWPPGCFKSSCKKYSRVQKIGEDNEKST

Homo sapiens = species on record: Homo sapiens; assay: Selectivity index, ratio of IC50 for full length C-terminal FLAG tagged human SMS1 to IC50 for full length C-terminal FLAG tagged human SMS2

IC50 [1] [µM]	IC50 [2] [µM]	IC50 [3] [µM]	Ratio IC50 (Homo sapiens)	Structure (SMILES)	Activity (HEK-293T) [%]
> 100	–	–	–	CN(Cc1cc(C(F)(F)F)cc(C(F)(F)F)c1)C(=O)c1c(N2CCCC2)c2ccccc2n(C)c1=O	> 50
–	86	56	1.5	S=C(S)OC1CC2CC1C1CCCC21 (stereo not given)	–
